Test results published in patent publication US12576051B2, “Methods and composition for treating respiratory obstructive diseases” (The Regents of the University of California, priority 2019, dated 2026).

How the values were obtained:
porcine airway = assay: Ex vivo porcine airway models (summary statement)
Source text: Abnormal mucus accumulation in airways has deleterious, and fatal consequence in patients suffering from respiratory obstructive diseases, such as cystic fibrosis (CF), COPD and asthma. Therefore, there is a need for therapies aimed at decreasing mucus accumulation to facilitate airway mucus clearance.

[1] = test system: respiratory secreted mucus; assay: Mucolytic activity on respiratory secreted mucus of open porcine trachea sections (alcian blue); details: 2 mM, HCO3-Ringer with PGE2 (1 uM) and alcian blue (0.02%), 10 minutes at 37° C.; untreated showed clusters of secreted mucus; hydrochloride
Method: (§1) FIG. 16 provides the mucolytic activity of compounds 646 and 647 on respiratory secreted mucus. Small sections of open porcine trachea (˜2 cm^2) were covered with HCO3-Ringer solution ([…]) containing PGE2 (1 uM) and alcian blue (0.02%), with or without compounds at a 2 mM final concentration, and then incubated for 10 minutes at 37° C.
as §1, with “17” for “16”, “655” for “646”, “656” for “647”

[2] = test system: Muc5ac mucin from porcine airway mucus; assay: Mucolytic effect on Muc5ac mucin from porcine airway mucus (western blot, densitometry); type: biochemical; details: 2 mM, 30 mins at 37° C.; compound preincubated in HCO3-Ringer, HCO3-Ringer/acetic acid or acetate buffer pH 4.5
Method: (§2) (Upper panel) Identification of Muc5ac mucin (black arrow) by western blot, from airway mucus sample collected in HCO3-Ringer and treated with or without 2 mM of compound 646 for 30 mins at 37° C. Lane CTRL, untreated sample as control. Lane Bic, sample treated with compound preincubated in HCO3-Ringer; lane Bic/Ac, sample treated with compound preincubated with 1:1 HCO3-Ringer/Acetic acid 0.1N; lane Ac, sample treated with compound preincubated in acetate buffer 1M, pH 4.5. Lower panel, densitometric analysis of the protein bands identified with the Muc5ac mucin antibody. Densitometric signal of the sample control (CTRL) was normalized as 100% (% arbitrary units).
as §2, with “647” for “646”, “4.5, as described under Methods.” for “4.5.”, “units). Control is pH 8, Bic 7.4, Bic/AC 6.9 AND AC 6.2” for “units).”
as §2, with “655” for “646”
as §2, with “compounds 656” for “compound 646”

[3] = test system: porcine gastric mucin extract (50 kDa band matched to Muc5ac mucin); assay: Mucolytic activity on gastric mucin (electrophoresis, Coomassie stain); type: biochemical; details: for 50 kDa protein band of gastric mucin extract: 37° C., 60 minutes, versus untreated extract, hydrochloride
Method: FIG. 7 presents the effects of cysteamine bitartrate and compound 646 on porcine gastric mucin extract. One hundred microliters of gastric mucin extract (5 mg/mL) was incubated with and without cysteamine bitartrate and compound 646 separately, at 37° C. for 60 minutes.
Gastric Mucin extract solution: Mucin was prepared as stock solution of 5 mg/mL in water, in NaCl Ringer (150 mM Na^+, 4.6 mM K^+, 1 mM Ca^2+, 1 mM Mg^2+, 150 mM Cl^−, 2.5 mM PO4^x− and 10 mM glucose) pH 7.2, and in HCO3-Ringer solution (150 mM Na^+, 4.6 mM K^+, 1 mM Ca^2+, 1 mM Mg^2+, […] HCO3^−, 2.5 mM PO4^x− and 10 mM glucose) pH 8.
Mucolytic activity on gastric mucin. One hundred microliters of mucin solution were incubated with Cysteamine bitartrate or compound 646 at final concentrations from 0 to 2 mM as indicated in the text. Mixture was incubated at 37° C. for 0-1 hr. Mucolytic activity was ended with 30 microliters of SDS-sample buffer solution. Forty-five microliters of each sample/well were separated in an electrophoresis gel 4-12% Tris-Glycine. After electrophoresis gels were stained with Coomassie Blue solution.
In vitro mucolytic activity of cysteamine bitartrate and compound 646. To evaluate the mucolytic activity of cysteamine bitartrate and 2-aminoethane-1-d-1-thiol hydrochloride (Compound 646), gastric mucin extract was used as a substrate that was treated with 200 and 400 μM of cysteamine bitartrate or Compound 646 respectively.
Mass spectrometry analysis of the isolated 50 kDa protein band. Muc5ac and Muc6 mucins are two major secretory mucins found in the stomach. In order identify which of these mucins were part of the 50 kDa band, mass spectrometry was utilized. Mass spectrometry analysis of the 50 kDa protein band identified 17 unique peptides that matched with porcine Muc5ac mucin.

Substance: 2-aminoethane-1-d-1-thiol hydrochloride [Compound 646]
- accumulation of viscous mucus and mucociliary clearance (porcine airway): prevented accumulation of viscous mucus and improves mucociliary clearance
- appearance of secreted mucus on trachea sections [1]: dispersed clusters of secreted mucus
- influence of acidic and basic conditions on mucolytic activity on porcine Muc5ac mucin [2]: enhanced under acidic conditions
- 50 kDa protein band of gastric mucin extract ([3]; 200 μM): decrease in the 50 kDa protein band
- 50 kDa protein band of gastric mucin extract ([3]; 400 μM): decrease in the 50 kDa protein band
- anti-mucin effect against gastric mucin, Muc5ac in particular ([3]; summary of FIG. 7 and FIG. 8): anti-mucin effect against gastric mucin
